Like-named read-outs stand apart in the source and are kept apart here.
What was measured:
recombinant LDHA [1] = biological target: T1, recombinant LDHA (Homo sapiens, UniProt P00338); assay: LDHA enzyme activity inhibition assay (NADH oxidation, 340 nm); format: biochemical; design: His-tag; made in house; host or cells: E. coli BL21(DE3); conditions: for LDH inhibitory activity, LDHA compared with LDHB (inhibition rates) / inhibition rate against LDHA (selection for dose-response): components assayed at 10 µM and 40 µM; for LDH inhibitory activity, LDHA compared with LDHB (inhibition rates): Figure 5
HepG2 cells = assay: Cell viability assay (CCK-8) HepG2; format: cell-based; conditions: Homo sapiens, 72 h incubation, read-out: IC50 against HepG2
Method: (§1) The MDA-MB-231 and HepG2 cell lines, representing triple-negative breast cancer and hepatocellular carcinoma, were selected to evaluate the inhibitory effects of LDHA and LDHB inhibitors. […] Following 72 h of incubation, 10 µL of CCK-8 reagent was added to each well, and cells were further incubated for 1–4 h. Absorbance was measured at 450 nm with a reference wavelength of 600 nm for background correction. Data from three independent experiments (each with three technical replicates) were normalized to the vehicle control (100% viability) and medium-only wells (0% viability).

MDA-MB-231 cells = assay: Cell viability assay (CCK-8) MDA-MB-231; format: cell-based; conditions: Homo sapiens, 72 h incubation, read-out: IC50 against MDA-MB-231
Method: as §1

recombinant LDHB [2] = biological target: T2, recombinant LDHB (Homo sapiens, UniProt P07195); assay: LDHB enzyme activity inhibition assay (NADH oxidation, 340 nm); format: biochemical; conditions: for IC50: 0.08 mM sodium pyruvate, 0.04 mM NADH, 10 min pre-incubation, 30 °C, read-out: IC50 against LDHB; for inhibition rate against LDHB (selection for dose-response): components assayed at 10 µM and 40 µM
T2 construct: His-tag; made in house; host or cells: E. coli BL21(DE3)
T2 sequence (P07195 whole entry): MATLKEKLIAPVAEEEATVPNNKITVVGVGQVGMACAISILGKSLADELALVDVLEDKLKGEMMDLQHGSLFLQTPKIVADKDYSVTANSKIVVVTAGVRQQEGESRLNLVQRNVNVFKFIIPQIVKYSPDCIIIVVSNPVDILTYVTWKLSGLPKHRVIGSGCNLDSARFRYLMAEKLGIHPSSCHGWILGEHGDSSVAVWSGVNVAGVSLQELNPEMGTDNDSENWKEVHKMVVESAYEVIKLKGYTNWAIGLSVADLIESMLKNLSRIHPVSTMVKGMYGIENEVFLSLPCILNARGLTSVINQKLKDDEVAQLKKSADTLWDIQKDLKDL
Method: The Z’ factor (Z’ = 1 − [3 × (σₚ + σₙ)]/|μₚ − μₙ|) was used to evaluate the robustness of the screening platform, where σ represents the standard deviation, μ represents the mean value, p denotes enzyme activity, and n denotes the background signal. […] (2) The enzyme-inhibitor mixture was pre-incubated for 10 min at room temperature. […] (4) At 30 °C, the enzymatic reaction was monitored at 340 nm for 20 min.
For the enzyme activity assay, the concentrations of the R. crenulata extract were 20 µg/mL, while the 19 isolated components was assayed at 10 µM and 40 µM.

recombinant LDHB [3] = biological target: T2, recombinant LDHB; assay: Michaelis-Menten kinetics of recombinant LDHB; format: biochemical; conditions: pyruvate varied with NADH 0.6 mM; NADH varied with sodium pyruvate 1 mM
Method: (§2) Based on comprehensive literature evidence and systematic experimental validation, we established optimized enzymatic assay platforms for LDHA and LDHB inhibitor screening. In the platforms, 60 µL of purified enzyme solution (1.95 nM final concentration) was loaded into 96-well plates, followed by 140 µL of a 1:1 (v/v) pyruvate/NADH substrate mixture. Reactions were conducted in 0.1 M Tris-HCl buffer (with 10% glycerol, pH 7.4) at 30 °C, and NADH oxidation was kinetically monitored at 340 nm for 20 min. To determine the kinetic parameters, the optimization protocol for LDHA was performed as follows: with NADH fixed at 0.6 mM while varying sodium pyruvate (0.02–2.5 mM) to determine the optimal concentration; and with sodium pyruvate fixed at 1 mM while varying NADH (0.01–0.7 mM) to determine the optimal concentration. Similarly, the optimization protocol for LDHB was performed as follows: with NADH fixed at 0.6 mM while varying sodium pyruvate (0.01–1.05 mM) to determine the optimal concentration; and with sodium pyruvate fixed at 1 mM while varying NADH (0.01–0.7 mM) to determine the optimal concentration. The initial reaction rates were derived by analyzing the progress curves with OriginPro 2023 (OriginLab Co., Northampton, MA, USA). Kinetic parameters (Km and Vmax) were derived by nonlinear regression analysis of the Michaelis-Menten equation using GraphPad Prism 8.0 (GraphPad Software, San Diego, CA, USA).

recombinant LDHA [4] = biological target: T1, recombinant LDHA; assay: Michaelis-Menten kinetics of recombinant LDHA; conditions: pyruvate varied with NADH 0.6 mM, NADH varied with sodium pyruvate 1 mM
CC(=O)C(=O)O [5] = assay: purified protein, by the assay type; conditions: other: pyruvate varied with NADH 0.6 mM; NADH varied with sodium pyruvate 1 mM; pH 7.4; 30.0 °C
CC(=O)C(=O)O [6] = tested on: T3, CC(=O)C(=O)O; assay: Michaelis-Menten kinetics of recombinant LDHB; format: biochemical, homo sapiens; conditions: other: pyruvate varied with NADH 0.6 mM; NADH varied with sodium pyruvate 1 mM; pH 7.4; 30.0 °C
T3 construct: His-tag; made in house; host or cells: E. coli BL21(DE3)
Method: as §2

[7] = 0.16 mM sodium pyruvate, 0.04 mM NADH, 10 min pre-incubation, 30 °C, read-out: IC50 against LDHA

| Compound | LDH inhibitory activity, LDHA compared with LDHB (inhibition rates) (recombinant LDHA [1]) | IC50 (HepG2 cells) [µM] | IC50 (MDA-MB-231 cells) [µM] | IC50 (recombinant LDHA [1]; [7]) [µM] | inhibition rate against LDHA (selection for dose-response) (recombinant LDHA [1]) | IC50 (recombinant LDHB [2]) [µM] | inhibition rate against LDHB (selection for dose-response) (recombinant LDHB [2]) | other results |
| --- | --- | --- | --- | --- | --- | --- | --- | --- |
| O=c1oc2c(O)c(O)cc3c(=O)oc4c(O)c(O)cc1c4c23 [Ellagic acid] | stronger inhibition against LDHA than LDHB | 59 ± 3 | 54.3 ± 2.5 | – | – | – | – | – |
| O=C(O[C@@H]1Cc2c(O)cc(O)cc2O[C@@H]1c1ccc(O)c(O)c1)c1cc(O)c(O)c(O)c1 [Epicatechin gallate, epicatechin gallate] | stronger inhibition against LDHA than LDHB | 33.8 ± 1 | 23.5 ± 1 | 2.27 ± 0.23 | exceeding 80% | – | – | – |
| O=c1c(O)c(-c2ccc(O)cc2)oc2cc(O)cc(O)c12 [Kaempferol, kaempferol] | stronger inhibition against LDHA than LDHB | 50 ± 2.5 | 37.5 ± 2 | 0.7 ± 0.13 | exceeding 80% | 8.69 ± 0.85 | exceeding 80% | potency in inhibiting LDHA relative to LDHB (IC50 comparison) (recombinant LDHA [1]; LDHA vs LDHB): more than 10 fold |
| O=c1cc(-c2ccc(O)c(O)c2)oc2cc(O)cc(O)c12 [Luteolin, luteolin] | stronger inhibition against LDHA than LDHB | 74 ± 3.5 | 25.1 ± 1 | – | exceeding 80% | 2.71 ± 0.39 | exceeding 80% | – |
| NC(=O)C1=CN([C@@H]2O[C@H](COP(=O)([O-])OP(=O)([O-])OC[C@H]3O[C@@H](n4cnc5c(N)ncnc54)[C@H](O)[C@@H]3O)[C@@H](O)[C@H]2O)C=CC1.[Na+].[Na+] [NADH, β-Nicotinamide adenine dinucleotide disodium salt] | – | – | – | – | – | – | – | Km (recombinant LDHB [3]): 40 ± 5 µM; Vmax of LDHB (recombinant LDHB [3]): 10.05 ± 0.33 µM/min; Vmax of LDHA (recombinant LDHA [4]): 15.37 ± 0.57 µM/min; Km (recombinant LDHA [4]; read-out: Km of LDHA): 39 ± 6 µM |
| O=c1c(O)c(-c2ccc(O)c(O)c2)oc2cc(O)cc(O)c12 [Quercetin] | stronger inhibition against LDHA than LDHB | 54.8 ± 3 | 27.3 ± 1.5 | 0.27 ± 0.02 | exceeding 80% | 0.87 ± 0.07 | exceeding 80% | – |
| Cc1cc2c(C(C)C)c(O)c(O)c(C=O)c2c(O)c1-c1c(C)cc2c(C(C)C)c(O)c(O)c(C=O)c2c1O [gossypol, reference compound] | – | – | – | – | – | – | – | IC50 (recombinant LDHA [1]): 0.19 ± 0.05 µM |
| recombinant LDHA (Homo sapiens) | – | – | – | – | – | – | – | Km (CC(=O)C(=O)O [5]): 160 ± 27 µM |
| recombinant LDHB (Homo sapiens) | – | – | – | – | – | – | – | Km (CC(=O)C(=O)O [6]): 74 ± 19 µM |

From paper PMC12610713, “Inhibition Profiling of Rhodiola crenulata on Lactate Dehydrogenase Isoenzymes” (Molecules, 2025)
